This note sets out measurements from publication PMC12114683, “The Molecular Chaperone TCP1 Affects Carcinogenicity and Is a Potential Therapeutic Target for Acute Myeloid Leukemia” (Pharmaceutics, 2025).

The target in the assay is T1, TCP1 (Homo sapiens, UniProt P17987).
T1 construct: commercial recombinant TCP1 (Abnova), isolated subunit, amine-coupled to CM5 chip; PDB 4B2T was only the docking model
Description: SPR (Biacore T200, CM5 chip, TCP1 amine-coupled). Type of assay: binding.

T1 sequence (P17987 whole entry): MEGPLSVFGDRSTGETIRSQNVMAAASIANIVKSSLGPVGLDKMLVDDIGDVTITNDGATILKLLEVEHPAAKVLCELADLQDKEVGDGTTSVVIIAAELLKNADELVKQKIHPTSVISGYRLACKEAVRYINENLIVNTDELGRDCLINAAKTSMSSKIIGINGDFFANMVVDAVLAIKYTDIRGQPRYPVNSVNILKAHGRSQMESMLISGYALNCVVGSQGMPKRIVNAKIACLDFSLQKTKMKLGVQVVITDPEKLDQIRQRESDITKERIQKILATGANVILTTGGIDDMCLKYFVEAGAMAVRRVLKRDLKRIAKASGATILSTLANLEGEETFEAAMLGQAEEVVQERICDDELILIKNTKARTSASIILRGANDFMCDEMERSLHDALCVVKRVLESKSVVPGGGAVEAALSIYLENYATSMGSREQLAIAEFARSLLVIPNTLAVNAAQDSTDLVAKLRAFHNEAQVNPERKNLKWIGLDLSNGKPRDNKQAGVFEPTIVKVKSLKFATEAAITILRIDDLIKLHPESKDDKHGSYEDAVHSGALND

In general, Kd refers to the concentration at which binding is half-saturated. Read a low Kd as higher affinity. `CCCCCCCCc1ccc(CCC(N)(CO)CO)cc1` [FTY720] came in with a Kd of 6.77 nM.
